≈ marks a conversion by molar mass, not a printed value. Calls of active or inactive are those of the source. No cut-off for these calls is given here.
Columns and labels:
[1] = tested on: HCT-116; assay: Antiproliferative activity against human HCT-116 cells assessed as inhibition of cell growth by proliferation assay; assay type: functional, cell-based
[2] = Solubility of the compound; assay type: physicochemical
[3] = tested on: HCT-116; assay: Antiproliferative activity against MTAP-/- isogenic variant of human HCT-116 cells assessed as inhibition of cell growth by proliferation assay; assay type: functional, cell-based
[4] = Lipophilicity, log D of compound at pH 7.4; assay type: physicochemical; details: buffer
[5] = target: T1, S-adenosylmethionine synthase isoform type-2 (Homo sapiens, UniProt P31153); assay: Inhibition of recombinant human MAT2A
[6] = target: T2, S-adenosylmethionine synthase isoform type-1 (Homo sapiens, UniProt Q00266); assay: Inhibition of recombinant human MAT1A
T2 sequence (Q00266 whole entry, canonical isoform): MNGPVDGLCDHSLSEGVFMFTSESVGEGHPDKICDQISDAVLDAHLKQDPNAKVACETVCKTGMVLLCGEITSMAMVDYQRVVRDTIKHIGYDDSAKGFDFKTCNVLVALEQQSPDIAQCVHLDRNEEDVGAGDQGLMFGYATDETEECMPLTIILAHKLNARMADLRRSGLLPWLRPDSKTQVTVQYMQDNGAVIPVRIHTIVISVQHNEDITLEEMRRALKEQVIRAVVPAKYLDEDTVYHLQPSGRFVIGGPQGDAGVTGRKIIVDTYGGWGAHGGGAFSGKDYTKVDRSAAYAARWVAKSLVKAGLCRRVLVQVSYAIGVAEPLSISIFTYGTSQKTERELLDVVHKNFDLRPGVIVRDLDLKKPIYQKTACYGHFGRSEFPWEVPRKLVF

[7] = target: T2, S-adenosylmethionine synthase isoform type-1; assay: Inhibition of human MAT1A
[8] = target: T2, S-adenosylmethionine synthase isoform type-1; assay: Activation of human MAT1A; details: filed as activator
[9] = target: T1, S-adenosylmethionine synthase isoform type-2; assay: Inhibition of human MAT2A
Target sequence in this assay (P31153 whole entry, canonical isoform): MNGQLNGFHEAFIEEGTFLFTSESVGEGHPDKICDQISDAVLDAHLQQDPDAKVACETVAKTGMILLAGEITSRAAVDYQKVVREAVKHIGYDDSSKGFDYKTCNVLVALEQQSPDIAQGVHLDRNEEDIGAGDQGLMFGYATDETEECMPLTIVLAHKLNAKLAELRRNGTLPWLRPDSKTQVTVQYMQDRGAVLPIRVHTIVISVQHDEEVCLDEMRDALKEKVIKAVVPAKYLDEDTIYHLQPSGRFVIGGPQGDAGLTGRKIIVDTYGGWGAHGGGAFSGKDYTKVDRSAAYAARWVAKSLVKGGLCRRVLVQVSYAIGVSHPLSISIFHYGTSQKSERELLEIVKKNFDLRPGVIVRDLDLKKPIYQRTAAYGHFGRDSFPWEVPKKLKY

IC50 [1]	solubility [2]	IC50 [3]	logD [4]	IC50 [5]	inhibition [6]	IC50 [7]	inhibition [5]	Activity [8]	IC50 [9]	Compound
9.23 µM	11 µM (≈ 3.51 µg/mL)	4.96 µM	2.7	0.051 µM	–	–	–	–	–	COc1ccc2oc3cc(C)[n+]([O-])c(-c4ccc(C)cc4)c3c2c1
> 10 µM	49 µM (≈ 17.7 µg/mL)	7.17 µM	2.6	0.205 µM	–	–	–	–	–	CCn1ncc2c(C(=O)Nc3ccc4ncn(C)c4c3)cc(C3CC3)nc21
> 10 µM	4 µM (≈ 1.49 µg/mL)	> 10 µM	3.7	3.71 µM	–	–	–	–	–	CC(C)n1ncc2c(C(=O)Nc3ccc4ncccc4c3)cc(C3CC3)nc21
–	–	–	–	–	Active	0.813 µM	Active	–	–	O=c1nc(N2CC[C@@H](F)C2)c2ccc(Cl)cc2n1-c1ccccc1
–	4 µM (≈ 1.55 µg/mL)	–	3.2	> 10 µM	–	–	–	–	–	CCCCn1ncc2c(C(=O)Nc3ccc4nn(C)cc4c3)cc(C3CC3)nc21
–	2 µM (≈ 0.745 µg/mL)	–	3.5	> 10 µM	–	–	–	–	–	CC(C)n1ncc2c(C(=O)Nc3ccc4nccnc4c3)cc(C3CC3)nc21
–	94 µM (≈ 35.2 µg/mL)	–	2.2	> 10 µM	–	–	–	–	–	CCn1ncc2c(C(=O)N(C)c3ccc4nn(C)cc4c3)cc(C3CC3)nc21
> 10 µM	2 µM (≈ 0.721 µg/mL)	1.71 µM	2.8	0.078 µM	–	–	–	–	–	CCn1ncc2c(C(=O)Nc3ccc4nn(C)cc4c3)cc(C3CC3)nc21
> 10 µM	42 µM (≈ 14.1 µg/mL)	7.55 µM	2.5	0.145 µM	–	–	–	–	–	COc1ccc(-c2c3c(cc(C)[n+]2[O-])oc2ccc(OC)cc23)cc1
–	–	–	–	–	Active	–	Active	Active	–	COc1ccc(-c2c(Nc3ccccn3)[nH]c3c(C4=CCCCC4)c(-c4ccccc4)nn3c2=O)cc1
–	15 µM (≈ 4.58 µg/mL)	–	2.3	1.31 µM	–	–	–	–	–	COc1ccc2oc3cc(C)[n+]([O-])c(-c4ccccc4)c3c2c1
> 10 µM	3 µM (≈ 1.01 µg/mL)	5.27 µM	3.6	0.13 µM	–	–	–	–	–	CCn1ncc2c(C(=O)Nc3ccc(OC)cc3)cc(C3CC3)nc21
> 10 µM	9 µM (≈ 3.37 µg/mL)	3.19 µM	2.9	0.09 µM	–	–	–	–	–	CCn1ncc2c(C(=O)Nc3ccc4nn(C)c(C)c4c3)cc(C3CC3)nc21
–	–	–	–	–	Active	–	Active	Active	0.412 µM	CN(C)CCc1nnc2cc(-c3ccccc3)c3cc(Cl)ccc3n12
–	–	–	–	–	Active	> 10 µM	Active	–	0.05 µM	Cn1cc2cc(-n3cc4cnc(NCC(F)(F)F)nc4c(-c4ccc(OC(F)F)cc4)c3=O)ccc2n1
> 10 µM	1 µM (≈ 0.363 µg/mL)	3.86 µM	3.4	0.172 µM	–	–	–	–	–	CCn1ncc2c(C(=O)Nc3ccc4ncsc4c3)cc(C3CC3)nc21
7.93 µM	14 µM (≈ 4.76 µg/mL)	3.12 µM	2.8	0.122 µM	–	–	–	–	–	COc1ccc2oc3cc(C)[n+]([O-])c(-c4ccc(Cl)cc4)c3c2c1
> 10 µM	3 µM (≈ 1.12 µg/mL)	> 10 µM	3.3	0.403 µM	–	–	–	–	–	CC(C)n1ncc2c(C(=O)Nc3ccc4nn(C)cc4c3)cc(C3CC3)nc21
> 10 µM	32 µM (≈ 12 µg/mL)	2.42 µM	3.1	0.068 µM	–	–	–	–	–	CCn1cc2cc(NC(=O)c3cc(C4CC4)nc4c3cnn4CC)ccc2n1
> 10 µM	23 µM (≈ 7.97 µg/mL)	> 10 µM	2.7	0.469 µM	–	–	–	–	–	CCn1ncc2c(C(=O)Nc3ccc4[nH]ncc4c3)cc(C3CC3)nc21
> 10 µM	47 µM (≈ 16.9 µg/mL)	9.96 µM	2.6	0.303 µM	–	–	–	–	–	CCn1ncc2c(C(=O)Nc3ccc4c(c3)ncn4C)cc(C3CC3)nc21
> 10 µM	13 µM (≈ 4.65 µg/mL)	6.41 µM	3.2	0.277 µM	–	–	–	–	–	CCn1ncc2c(C(=O)Nc3ccc4ncccc4c3)cc(C3CC3)nc21
> 10 µM	19 µM (≈ 6.85 µg/mL)	> 10 µM	3.3	1.84 µM	–	–	–	–	–	CC(C)n1ncc2c(C(=O)Nc3ccc4n[nH]cc4c3)cc(C3CC3)nc21

Reference: ChEMBL document CHEMBL5365425, “Discovery of novel methionine adenosyltransferase 2A (MAT2A) allosteric inhibitors by structure-based virtual screening” (Bioorg Med Chem Lett, 2023)
